Measurements: patent US20070276011A1, “Plasminogen Activator Inhibitor-1 Inhibitor” (priority 2003, published 2007)

Target: recombinant human PAI-1 (Homo sapiens, UniProt P05121)
Assay: PAI-1 inhibitory activity, Test Method A (tPA fluorogenic substrate, Tris buffer pH8.0, 37 C)
Type: biochemical
Details: for Inhibitory Ratio at 25 μM (%): Test Method A
Experimental: To this solution, 50 μL solution of 400 μM fluogenic substrate for tPA (Pyr-Gly-Arg-MCA, Peptide Institute, Inc.) adjusted with the same buffer was added, and reacted for 30 minutes at 37° C. The reaction was stopped by adding 50 μL of 2% acetic acid. Fluorescence was measured at the excitation wavelength=360 nm, emission wavelength=460 or 465 nm using a microplate reader (SPECTRAFLUOR or GENios) by TECAN. The fluorescence intensities in the presence of the PAI-1 as the control (DMSO) or in the absence of the PAI-1 (tPA alone) were taken as 100% and 0% of PAI-1 activities, respectively, and inhibitory ratios of PAI-1 activities in the presence of the test compound were obtained.
<Composition of the Tris Buffer (pH8.0)>

recombinant human PAI-1, sequence (P05121 24-402): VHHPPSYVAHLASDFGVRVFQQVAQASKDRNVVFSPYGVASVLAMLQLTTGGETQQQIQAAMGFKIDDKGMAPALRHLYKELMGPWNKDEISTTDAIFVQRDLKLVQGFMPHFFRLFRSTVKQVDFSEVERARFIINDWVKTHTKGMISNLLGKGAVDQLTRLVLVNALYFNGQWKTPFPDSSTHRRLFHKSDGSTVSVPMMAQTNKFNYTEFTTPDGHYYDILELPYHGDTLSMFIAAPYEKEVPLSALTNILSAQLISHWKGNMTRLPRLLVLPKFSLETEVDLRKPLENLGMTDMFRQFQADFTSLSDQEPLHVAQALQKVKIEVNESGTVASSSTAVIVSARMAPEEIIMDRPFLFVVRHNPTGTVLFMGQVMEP

| Structure (SMILES) | Inhibitory Ratio at 25 μM (%) (25 μM test compound) | Inhibitory Ratio at 25 μM (%) (test compound 25 μM) | further results |
| --- | --- | --- | --- |
| CCOC(=O)CCC1=NN(c2ccccc2)C(=O)C1=Cc1cc(O)c(O)cc1O [compound 514] | 56% | – | – |
| O=C1C(=Cc2ccc(-c3cc(Cl)cc(Cl)c3)o2)C(c2ccccc2)=NN1c1cccc([N+](=O)[O-])c1 [compound 167, 4-{[5-(3,5-Dichlorophenyl)furan-2-yl]methylene}-1-(3-nitrophenyl)-3-phenyl-2-pyrazolin-5-one] | – | 50% | – |
| O=C(Nc1ccc(O)c(O)c1)c1cc(C=C2SC(=O)N(Cc3ccc([N+](=O)[O-])cc3)C2=O)ccc1O [compound 378] | 86% | – | – |
| COc1c(O)cccc1C=C1SC(=O)N(Cc2ccc(Cl)c(Cl)c2)C1=O [compound 329] | 34% | – | – |
| Cc1ccc(O)c(NC(=O)c2cc(C=C3SC(=O)N(Cc4ccc(Cl)c(Cl)c4)C3=O)ccc2O)c1 [compound 457] | >99% | – | – |
| O=C(Nc1cccc(OC(F)(F)F)c1)c1cc(C=C2SC(=O)N(Cc3ccc(Cl)c(Cl)c3)C2=O)ccc1O [compound 414] | 91% | – | – |
| O=C1SC(=Cc2ccc(F)c(O)c2)C(=O)N1Cc1ccc(Cl)c(Cl)c1 [compound 326] | 66% | – | – |
| CCOC(=O)Oc1ccc(C=C2SC(=O)N(Cc3ccc(Cl)cc3Cl)C2=O)cc1OC(=O)OCC [compound 337] | 43% | – | – |
| CC(C)C1=NN(c2cc(Cl)cc(Cl)c2)C(=O)C1=Cc1ccc(O)c(C(=O)O)c1 [compound 106] | – | >99% | – |
| CCN(CC)c1ccc(O)c(C=C2C(=O)N(c3ccc(Cl)c(Cl)c3)N=C2C(C)C)c1 [compound 560] | >99% | – | – |
| CC(C)C1=NN(c2cc(Cl)cc(Cl)c2)C(=O)C1=Cc1cc(O)c(O)cc1Br [compound 556, 4-(2-Bromo-4,5-dihydroxybenzylidene)-1-(3,5-dichlorophenyl)-3-isopropyl-2-pyrazolin-5-one] | >99% | – | – |
| O=C1C(=Cc2cccc(O)c2)C(c2ccc(O)cc2)=NN1c1cc(Cl)cc(Cl)c1 [compound 509, 4-(3-Hydroxybenzylidene)-1-(3,5-dichlorophenyl)-3-(4-hydroxyphenyl)-2-pyrazolin-5-one] | >99% | – | – |
| CCOc1cc(C=C2C(=O)N(c3cccc(C(=O)O)c3)N=C2C)ccc1OC(=O)c1cccs1 [compound 103] | – | >99% | – |
| O=C1SC(=Cc2ccc(O)c(O)c2O)C(=O)N1Cc1ccc(Cl)c(Cl)c1 [compound 29] | – | 68% | – |
| COC(=O)c1ccc(NC(=O)c2cc(C=C3SC(=O)N(Cc4ccc(Cl)c(Cl)c4)C3=O)ccc2O)cc1 [compound 416, 5-{4-hydroxy-3-[4-(methoxycarbonyl)phenylcarbamoyl]benzylidene}-3-(3,4-dichlorobenzyl)thiazolidine-2,4-dione] | 73% | – | – |
| COc1cc(C=C2SC(=O)N(Cc3ccc(Cl)c(Cl)c3)C2=O)cc(C(=O)Nc2ccccc2)c1O [compound 440] | 82% | – | – |
| CC(C)C1=NN(c2ccc(C=Cc3ccccn3)cc2)C(=O)C1=Cc1cc(O)c(O)cc1O [compound 545] | 74% | – | – |
| CC(C)C1=NN(c2ccc(C(=O)O)cc2)C(=O)C1=Cc1ccc(C=Cc2ccccc2)cc1 [compound 536] | >99% | – | – |
| O=C1SC(=Cc2ccc(O)c(-c3c(O)cccc3O)c2)C(=O)N1Cc1ccc(Cl)c(Cl)c1 [compound 449] | >99% | – | – |
| O=C(O)c1cccc(N2N=C(C(F)(F)F)C(=Cc3ccc(-c4cc(C(F)(F)F)cc(C(F)(F)F)c4)o3)C2=O)c1 [compound 179] | – | 62% | – |
| O=C1SC(=Cc2ccc(O)c([N+](=O)[O-])c2)C(=O)N1Cc1ccc(Cl)c(Cl)c1 [compound 85, 5-(4-hydroxy-3-nitrobenzylidene)-3-(3,4-dichlorobenzyl)-thiazolidine-2,4-dione] | – | >99% | – |
| CC1=NN(c2cccc(C(=O)O)c2)C(=O)C1=Cc1ccc(-c2ccc(C)c(Cl)c2)o1 [compound 187] | – | 54% | – |
| COc1cc(C=C2SC(=O)N(Cc3ccc(Cl)c(Cl)c3)C2=O)cc(C(=O)Nc2cc(C(F)(F)F)cc(C(F)(F)F)c2)c1O [compound 438] | >99% | – | – |
| CC1=NN(c2cccc(C(=O)O)c2)C(=O)C1=Cc1cc(Br)ccc1OCc1ccccc1 [compound 173] | – | 66% | – |
| CCOC1=NN(c2ccc([N+](=O)[O-])cc2)C(=O)C1=Cc1cc(C(C)(C)C)ccc1O [compound 548] | 32% | – | – |

| Structure (SMILES) | Inhibitory Ratio at 25 μM (%) (25 μM test compound) | Inhibitory Ratio at 25 μM (%) (test compound 25 μM) | further results |
| --- | --- | --- | --- |
| O=C(Nc1ccc(O)cc1)c1cc(C=C2SC(=O)N(Cc3ccc(Cl)c(Cl)c3)C2=O)ccc1O [compound 354] | 72% | – | – |
| O=C(O)c1ccc(NC(=O)c2cc(C=C3SC(=O)N(Cc4ccc(Cl)c(Cl)c4)C3=O)ccc2O)cc1 [compound 419] | >99% | – | – |
| O=C1C(=Cc2cc(O)c(O)c(O)c2)C(c2ccccc2)=NN1c1cc(Cl)cc(Cl)c1 [compound 131] | – | >99% | – |
| O=C1SC(=Cc2cccc(O)c2O)C(=O)N1Cc1cccc([N+](=O)[O-])c1 [compound 49] | – | 93% | – |
| COc1ccc(NC(=O)c2cc(C=C3SC(=O)N(Cc4cc(C(F)(F)F)cc(C(F)(F)F)c4)C3=O)ccc2O)cc1OC [compound 383, 5-[4-Hydroxy-3-(3,4-dimethoxyphenylcarbamoyl)benzylidene]-3-[3,5-bis(trifluoromethyl)benzyl]thiazolidine-2,4-dione] | 73% | – | – |
| CC(C)C1=NN(c2ccc(Cl)c(Cl)c2)C(=O)C1=Cc1cc(O)ccc1[N+](=O)[O-] [compound 558] | >99% | – | – |
| CC(C)C1=NN(c2cc(Cl)cc(Cl)c2)C(=O)C1=Cc1cc(C=Cc2ccccc2)ccc1O [compound 525] | >99% | – | – |
| O=C(O)c1cccc(N2N=C(C(F)(F)F)C(=Cc3ccc(-c4cc(Cl)cc(Cl)c4)o3)C2=O)c1 [compound 176] | – | 65% | – |
| CC(C)C1=NN(Cc2ccc(Cl)c(Cl)c2)C(=O)C1=Cc1cc(O)c(O)cc1O.N=C(N)NCCC[C@H](N)C(=O)O.N=C(N)NCCC[C@H](N)C(=O)O [compound 554, di(L-(+)-arginine) salt of 4-(2,4,5-trihydroxybenzylidene)-1-(3,4-dichlorobenzyl)-3-isopropyl-2-pyrazolin-5-one] | >99% | – | – |
| Cc1cc(C)cc(CN2C(=O)SC(=Cc3ccc(O)c(C(=O)Nc4ccc(O)c(O)c4)c3)C2=O)c1 [compound 394] | >99% | – | – |
| COC(=O)c1ccc(NC(=O)c2cc(C=C3SC(=O)N(Cc4ccc(Cl)c(Cl)c4)C3=O)ccc2O)cc1OC [compound 405, 5-{4-hydroxy-3-[3-methoxy-4-(methoxycarbonyl)phenylcarbamoyl]-benzylidene}-3-(3,4-dichlorobenzyl)thiazolidine-2,4-dione] | 55% | – | – |
| O=C(CCc1ccccc1)Nc1ccc(CN2C(=O)SC(=Cc3ccc(O)c(O)c3)C2=O)cc1 [compound 315] | 39% | – | – |
| CC(C)C1=NN(Cc2ccc(Cl)c(Cl)c2)C(=O)C1=Cc1cc(O)c(O)cc1O.N=C(N)NCCC[C@H](N)C(=O)O.N=C(N)NCCC[C@H](N)C(=O)O.N=C(N)NCCC[C@H](N)C(=O)O [compound 553, tri(L-(+)-arginine) salt of 4-(2,4,5-trihydroxybenzylidene)-1-(3,4-dichlorobenzyl)-3-isopropyl-2-pyrazolin-5-one] | >99% | – | – |
| O=C(Nc1cccc([N+](=O)[O-])c1)c1cc(C=C2SC(=O)N(Cc3ccc(Cl)c(Cl)c3)C2=O)ccc1O [compound 424] | 87% | – | – |
| CC(C)C1=NN(c2cc(Cl)cc(Cl)c2)C(=O)C1=Cc1ccc(Br)cc1 [compound 207] | – | 46% | – |
| COc1cc(NC(=O)c2cc(C=C3SC(=O)N(Cc4ccc(Cl)c(Cl)c4)C3=O)ccc2O)cc(C(F)(F)F)c1 [compound 451, 5-{4-hydroxy-3-[3-methoxy-5-(trifluoromethyl)phenylcarbamoyl]-benzylidene}-3-(3,4-dichlorobenzyl)thiazolidine-2,4-dione] | >99% | – | – |
| O=C(Nc1ccc(O)c(O)c1)c1cc(C=C2SC(=O)N(Cc3cc(F)cc(F)c3)C2=O)ccc1O [compound 386] | 98% | – | – |
| CC1=NN(c2cccc(C(=O)O)c2)C(=O)C1=Cc1ccc(-c2cc(Cl)cc(Cl)c2)o1 [compound 191] | – | 59% | – |
| COC(=O)c1ccc(NC(=O)c2cc(C=C3SC(=O)N(Cc4ccc(Cl)c(Cl)c4)C3=O)ccc2O)cc1O [compound 437] | 69% | – | – |
| O=C1SC(=Cc2ccc(O)c(O)c2)C(=O)N1Cc1ccc(Oc2ccccc2)cc1 [compound 60, 5-(3,4-Dihydroxybenzylidene)-3-(4-phenoxybenzyl)thiazolidine-2,4-dione] | – | >99% | – |
| CC(C)C1=NN(c2cccc(C(=O)O)c2)C(=O)C1=Cc1ccc(-c2cc(Cl)cc(Cl)c2)o1 [compound 211] | – | 31% | – |
| COc1ccc(C=C2SC(=O)N(Cc3ccc(Cl)c(Cl)c3)C2=O)cc1F [compound 331, 5-(3-fluoro-4-methoxybenzylidene)-3-(3,4-dichlorobenzyl)-thiazolidine-2,4-dione] | 35% | – | – |
| COc1ccc(NC(=O)c2cc(C=C3SC(=O)N(Cc4ccc(C(F)(F)F)cc4)C3=O)ccc2O)cc1OC [compound 391, 5-[4-Hydroxy-3-(3,4-dimethoxyphenylcarbamoyl)benzylidene]-3-[4-(trifluoromethyl)benzyl]thiazolidine-2,4-dione] | >99% | – | – |
| CC1=NN(c2cc(Cl)cc(Cl)c2)C(=O)C1=Cc1cc(O)c(O)cc1O [compound 501] | >99% | – | IC50 (50% inhibitory concentration of PAI-1 activity, according to the aforementioned method): 810 nM |
